Test results: patent publication US12305162B2, “Method for expanding propagation of Metarhizium rileyi MR006 and use thereof” (priority 2023, dated 2025)

Experiments:
Test in all cases: Sub-lethal dose (LC25) of chlorantraniliprole on 2nd instar larvae
Format in all cases: in vivo
[1] = test system: Spodoptera litura
[2] = test system: Helicoverpa armigera
[3] = test system: Spodoptera frugiperda

## CNC(=O)c1cc(Cl)cc(C)c1NC(=O)c1cc(Br)nn1-c1ncccc1Cl [chlorantraniliprole]
[1]
  LC25 value: 0.008 µg/g
[2]
  LC25 value: 0.015 µg/g
[3]
  LC25 value: 0.006 µg/g
